Source: patent publication US20230151034A1 (COCRYSTAL PHARMA, INC., priority 2020, published 2023)
Where a SMILES comes first, the peptide text is derived from it. [ ]: non-standard residue; d: D form. The star is where a group is joined. ξ: configuration not given here. ξαMeE = CC(N)(CCC(=O)O)C(=O)O; Nonanoyl = CCCCCCCCC(=O)*

How the values were obtained:
[1] = molecular target: HuNV GGII.4 Norovirus protease (Norovirus GII.4 (human norovirus genogroup II genotype 4), UniProt P54634); assay: Norovirus protease FRET assay (HuNV GGII.4); format: biochemical; conditions: Table C; FRET protease assay; read-out: HuNV GGII.4 IC50
Sequence of HuNV GGII.4 Norovirus protease (P54634 1009-1189): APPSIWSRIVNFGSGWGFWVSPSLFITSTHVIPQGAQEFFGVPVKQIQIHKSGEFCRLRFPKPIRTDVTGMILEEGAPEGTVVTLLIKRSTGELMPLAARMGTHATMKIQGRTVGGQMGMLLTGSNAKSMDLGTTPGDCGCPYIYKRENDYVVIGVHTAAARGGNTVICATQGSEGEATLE

[2] = molecular target: SARS2 protease (Severe acute respiratory syndrome coronavirus 2, UniProt P0DTD1); assay: SARS-CoV-2 protease inhibition assay (SARS2 FRET protease assay); format: biochemical; conditions: Table E; SARS-CoV-2 protease inhibition; read-out: IC50
In short: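 SARS-CoV-2 protease (25 nM) was incubated for 30 min at 30 °C with 1.3 μM quenched 5-FAM/TAMRA peptide substrate and compound (3-fold dilutions, 20 μM–1.0 nM). The buffer was 20 mM HEPES-Na pH 7, 120 mM NaCl, 0.4 mM EDTA, 0.01% Triton, 5% glycerol and 4 mM DTT. Fluorescence was read at ex 473 and em 519 nm, and IC50 was derived.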

[3] = molecular target: Norwalk GGI.1 Norovirus protease (Norovirus, UniProt Q83883); assay: Noro-Norwalk FRET protease assay (Norwalk GGI.1); format: biochemical, Norwalk virus; conditions: Table C; FRET protease assay; read-out: Norwalk GGI.1 IC50
Sequence of Norwalk GGI.1 Norovirus protease (Q83883 1101-1281): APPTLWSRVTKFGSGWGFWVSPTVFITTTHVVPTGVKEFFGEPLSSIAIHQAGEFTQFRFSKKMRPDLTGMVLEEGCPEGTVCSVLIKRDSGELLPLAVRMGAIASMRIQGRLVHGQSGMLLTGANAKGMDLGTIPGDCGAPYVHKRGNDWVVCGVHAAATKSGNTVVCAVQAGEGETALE
Procedure: Viral protease assays: The antiviral activities of inhibitors were determined by FRET (Fluorescence Resonance Energy Transfer) assay. Purified viral protease was incubated with the protease substrate peptide (Edans-DFHLQ/GP-Dabcyl) and inhibitor, and IC50 values were subsequently determined by the fluorescence signals.
The Noro-Norwalk FRET protease assay was performed in 50 mM HEPES-Na pH 8, 50 mM NaCl, 0.4 mM EDTA, 4% glycerol, and 6 mM DTT. A self-quenching peptide substrate [5-FAM]-[…]-[TAMRA] was custom synthesized by Anaspec. Compounds were diluted in 3-fold serial dilutions to final concentrations of 200 μM to 10.2 nM. Noro protease was added to a final concentration of 1-7 μM, depending on the enzyme activity level, and the peptide substrate was added to a final concentration of 10 μM. The assay was incubated 90 minutes at 37° C. and read in a Perkin Elmer Envision with excitation at 473 nm and emission measurement at 519 nm.

| Compound | IC50 [1] [µM] | IC50 [2] [µM] | IC50 [3] [µM] |
| --- | --- | --- | --- |
| CCCCCCCCC(=O)N[C@@H](CC(C)C)C(=O)NC(C)(C=O)CCC(=O)N(C)C (stereo partly drawn) [Compound A1, N-((2S)-1-((5-(dimethylamino)-2-methyl-1,5-dioxopentan-2-yl)amino)-4-methyl-1-oxopentan-2-yl)nonanamide] (Nonanoyl-Leu-[ξαMeE](NMe2)-aldehyde) | > 200 | > 200 | > 200 |
| CN1C(=O)CCC(NC(=O)[C@H](CC2CCCCC2)NC(=O)OCc2cccc(Cl)c2)C1O (stereo partly drawn) [Compound A2, 3-chlorobenzyl ((2S)-3-cyclohexyl-1-((2-hydroxy-1-methyl-6-oxopiperidin-3-yl)amino)-1-oxopropan-2-yl)carbamate] | 127 | > 200 | 169 |
| CN(C)C(=O)CC[C@@H](C=O)NC(=O)[C@H](CC1CCCCC1)NC(=O)OCc1cccc(Cl)c1 [Compound A6, 3-chlorobenzyl ((S)-3-cyclohexyl-1-(((S)-5-(dimethylamino)-1,5-dioxopentan-2-yl)amino)-1-oxopropan-2-yl)carbamate] | 18.7 | > 200 | 2 |
| CCCCCN(C)C(=O)CC[C@@H](C=O)NC(=O)[C@H](CC1CCCCC1)NC(=O)OCc1cccc(Cl)c1 [Compound A7, 3-chlorobenzyl ((S)-3-cyclohexyl-1-(((S)-5-(methyl(pentyl)amino)-1,5-dioxopentan-2-yl)amino)-1-oxopropan-2-yl)carbamate] | 11.1 | 3.2 | 1.6 |
| CCCCCN(C)C(=O)CC[C@H](NC(=O)[C@H](CC1CCCCC1)NC(=O)OCc1cccc(Cl)c1)C(=O)N(C)OC [Compound A8, 3-chlorobenzyl ((S)-3-cyclohexyl-1-(((S)-1-(methoxy (methyl)amino)-5-(methyl(pentyl)amino)-1,5-dioxopentan-2-yl)amino)-1-oxopropan-2-yl)carbamate] | > 200 | 89.8 | > 200 |
| CCCCCN(C)C(=O)CC[C@H](NC(=O)[C@H](CC1CCCCC1)NC(=O)OCc1cccc(Cl)c1)C(O)P(=O)(OCC)OCC (stereo partly drawn) [Compound A9, 3-chlorobenzyl ((2S)-3-cyclohexyl-1-(((2S)-1-(diethoxyphosphoryl)-1-hydroxy-5-(methyl(pentyl)amino)-5-oxopentan-2-yl)amino)-1-oxopropan-2-yl)carbamate] | 154 | > 200 | 14 |
| CCOCCN(C)C(=O)CC[C@@H](C=O)NC(=O)[C@H](CC1CCCCC1)NC(=O)OCc1cccc(Cl)c1 [Compound A10, 3-chlorobenzyl ((S)-3-cyclohexyl-1-(((S)-5-((2-ethoxyethyl)(methyl)amino)-1,5-dioxopentan-2-yl)amino)-1-oxopropan-2-yl)carbamate] | 16.9 | 0.98 | 3.6 |
| CCOP(=O)(OCC)C(O)[C@H](CCC(=O)N(C)Cc1ccccc1)NC(=O)[C@H](CC1CCCCC1)NC(=O)OCc1cccc(Cl)c1 (stereo partly drawn) [Compound A13, 3-Chlorobenzyl ((2S)-1-(((2S)-5-(benzyl (methyl)amino)-1-(diethoxyphosphoryl)-1-hydroxy-5-oxopentan-2-yl)amino)-3-cyclohexyl-1-oxopropan-2-yl) carbamate] | > 200 | > 200 | 166 |
| CCOP(=O)(OCC)C(O)[C@H](CCC(=O)N(C)c1ccccc1)NC(=O)[C@H](CC1CCCCC1)NC(=O)OCc1cccc(Cl)c1 (stereo partly drawn) [Compound A14, 3-Chlorobenzyl ((2S)-3-cyclohexyl-1-(((2S)-1-(diethoxyphosphoryl)-1-hydroxy-5-(methyl (phenyl)amino)-5-oxopentan-2-yl)amino)-1-oxopropan-2-yl) carbamate] | 70.1 | > 200 | 50.9 |
| CCOP(=O)(OCC)C(O)[C@H](CCC(=O)N(C)CCc1ccccc1)NC(=O)[C@H](CC1CCCCC1)NC(=O)OCc1cccc(Cl)c1 (stereo partly drawn) [Compound A15, 3-Chlorobenzyl ((2S)-3-cyclohexyl-1-(((2S)-1-(diethoxyphosphoryl)-1-hydroxy-5-(methyl(phenethyl)amino)-5-oxopentan-2-yl)amino)-1-oxopropan-2-yl)carbamate] | 139 | > 200 | > 200 |
| CCNC(=O)NCCN(C)C(=O)CC[C@H](NC(=O)[C@H](CC1CCCCC1)NC(=O)OCc1cccc(Cl)c1)C(O)P(=O)(OCC)OCC (stereo partly drawn) [Compound A16, 3-Chlorobenzyl ((12S,15S)-16-cyclohexyl-12-((diethoxyphosphoryl)(hydroxy)methyl)-8-methyl-4,9,14-trioxo-3,5,8,13-tetraazahexadecan-15-yl)carbamate] | > 200 | > 200 | 81.9 |
| CN(Cc1ccccc1)C(=O)CC[C@@H](C=O)NC(=O)[C@H](CC1CCCCC1)NC(=O)OCc1cccc(Cl)c1 [Compound A18, 3-Chlorobenzyl ((S)-1-(((S)-5-(benzyl (methyl)amino)-1,5-dioxopentan-2-yl)amino)-3-cyclohexyl-1-oxopropan-2-yl) carbamate] | 14.5 | > 200 | 2.7 |
| CN(C(=O)CC[C@@H](C=O)NC(=O)[C@H](CC1CCCCC1)NC(=O)OCc1cccc(Cl)c1)c1ccccc1 [Compound A19, 3-Chlorobenzyl ((S)-3-cyclohexyl-1-(((S)-5-(methyl (phenyl)amino)-1,5-dioxopentan-2-yl)amino)-1-oxopropan-2-yl) carbamate] | 3.3 | 40.3 | 1 |
| CCOP(=O)(OCC)C(O)[C@H](CCC(=O)N(C)CCNS(=O)(=O)CC)NC(=O)[C@H](CC1CCCCC1)NC(=O)OCc1cccc(Cl)c1 (stereo partly drawn) [Compound A22] | > 200 | 2.3 | 143 |
| CN(CCc1cccc(Cl)c1)C(=O)CC[C@@H](CO)NC(=O)[C@H](CC1CCCCC1)NC(=O)OCc1cccc(Cl)c1 [Compound A24, 3-Chlorobenzyl ((S)-1-(((S)-5-((3-chlorophenethyl)(methyl)amino)-1-hydroxy-5-oxopentan-2-yl)amino)-3-cyclohexyl-1-oxopropan-2-yl)carbamate] | 123 | > 200 | > 200 |
| CCOCCOCCN(C)C(=O)CC[C@@H](C=O)NC(=O)[C@H](CC1CCCCC1)NC(=O)OCc1cccc(Cl)c1 [Compound A25, 3-Chlorobenzyl ((13S,16S)-17-cyclohexyl-13-formyl-9-methyl-10,15-dioxo-3,6-dioxa-9,14-diazaheptadecan-16-yl)carbamate] | 39.4 | > 200 | 17.2 |
| CCNC(=O)CN(C)C(=O)CC[C@@H](C=O)NC(=O)[C@H](CC1CCCCC1)NC(=O)OCc1cccc(Cl)c1 [Compound A27, 3-Chlorobenzyl ((S)-3-cyclohexyl-1-(((S)-5-((2-(ethylamino)-2-oxoethyl) (methyl)amino)-1,5-dioxopentan-2-yl)amino)-1-oxopropan-2-yl)carbamate] | 11.3 | 137 | 2.7 |
| CCOP(=O)(OCC)C(O)[C@H](CCC(=O)N(CC)CCc1ccccc1)NC(=O)[C@H](CC1CCCCC1)NC(=O)OCc1cccc(Cl)c1 (stereo partly drawn) [Compound A50, 3-Chlorobenzyl ((2S)-3-cyclohexyl-1-(((2S)-1-(diethoxyphosphoryl)-5-(ethyl(phenethyl)amino)-1-hydroxy-5-oxopentan-2-yl)amino)-1-oxopropan-2-yl)carbamate] | 95.7 | 9.7 | 97.4 |
